Experimental data published in the NIST ThermoML archive (doi:10.1021/je900311v).

How the values were obtained:
[1] = 298.15 K; 101.33 kPa; Liquid
[2] = excess molar enthalpy (molar enthalpy of mixing); xn = mol fraction of the nth substance listed; conditions: 298.15 K, 101 kPa, Liquid, Calvet calorimetry

CCCCCC(=O)CC [3-octanone]
Conditions	mass density [kg/m3]
[1]	817.77

CCCCCCCCCCCCCC [tetradecane]
Conditions	mass density [kg/m3]
[1]	760.2

CCCCCCC(C)=O [2-octanone] + CCCCCCCCCCCCCCCC
[2]
Conditions	excess molar enthalpy [kcal/mol]
x1 = 0.0446	0.0598
x1 = 0.0854	0.107
x1 = 0.1228	0.144
x1 = 0.1573	0.175
x1 = 0.1926	0.202
x1 = 0.2251	0.223
x1 = 0.255	0.241
x1 = 0.2827	0.255
x1 = 0.3084	0.266
x1 = 0.3324	0.274
x1 = 0.3585	0.282
x1 = 0.3826	0.288
x1 = 0.405	0.292
x1 = 0.4258	0.295
x1 = 0.448	0.298
x1 = 0.4685	0.299
x1 = 0.4876	0.299
x1 = 0.4933	0.3
x1 = 0.5044	0.3
x1 = 0.5161	0.299
x1 = 0.5282	0.299
x1 = 0.541	0.298
x1 = 0.5519	0.297
x1 = 0.5633	0.295
x1 = 0.5751	0.294
x1 = 0.5874	0.291
x1 = 0.6003	0.289
x1 = 0.6138	0.286
x1 = 0.6257	0.283
x1 = 0.6508	0.275
x1 = 0.6642	0.27
x1 = 0.6781	0.265
x1 = 0.6926	0.259
x1 = 0.7048	0.254
x1 = 0.7174	0.248
x1 = 0.737	0.241
x1 = 0.7443	0.234
x1 = 0.7583	0.226
x1 = 0.7732	0.217
x1 = 0.7861	0.209
x1 = 0.7993	0.2
x1 = 0.8131	0.19
x1 = 0.8273	0.18
x1 = 0.84	0.17
x1 = 0.8531	0.159
x1 = 0.8666	0.148
x1 = 0.8805	0.135
x1 = 0.8949	0.122
x1 = 0.9075	0.109
x1 = 0.9204	0.0961
x1 = 0.9337	0.0819
x1 = 0.9473	0.0667
x1 = 0.9614	0.0499
x1 = 0.9739	0.0346
x1 = 0.9868	0.0177
